Data set [1] has as its system Stratum corneum enzymatic extract. Nature of the data set: Bio-hydrolysis with the cutaneous enzymes obtained by tape stripping. The note with it: for Bio-hydrolysis Rate (%): 35° C.
Method: (§1) Samples of Stratum corneum are taken with surgical sparadrap (type Blenderm 3M Health Care, St. Paul, Minn., USA). The buffers used in the bio-hydrolysis trials are: 50 mM Tris(tris[hydroxymethyl]aminomethane) pH 7.3 and pH 8; 50 mM Na-acetate pH 5.5; 50 mM MES (2-[N-morpholino]-ethanesulphonic) acid pH 6 and 50 mM phosphate pH 6.5.
(§2) The precursors are solubilised in acetonitrile at a concentration of 1 g/l. For the bio-hydrolysis trials 50 μl of substrate and 50 μl of acetonitrile in 900 μl of enzymatic extract in the buffer at a chosen pH are added. The reaction mixtures are incubated at 35° C. without stirring and shielded from the light. The evolution of the bio-hydrolysis is determined by HPLC (high-performance liquid chromatography) with reverse phase polarity. The controls are effected in the same solutions without enzymatic extracts of skin, in order to determine the chemical stability of the products.
The test system is the same in data set [2].
Method: as §1, §2
A short description of data set [3]: Solubility of precursor in the bio-hydrolysis medium. Type of data set: physicochemical. An excerpt: Resveratrol trilipoate is obtained via lipoic acid chloride prepared in situ under argon at ambient temperature in dichloromethane. The acylation reaction leads to a mixture of the products of coupling (phenolic and recorcinic monolipoates, dilipoates and trilipoates). The trilipoates were obtained after chromatography on silica. The product was not characterised for reasons of insolubility. For the same reasons it cannot be bio-hydrolysed (see Table 1).

Entries after “also recorded” stand apart in the source; their conditions may differ. Read-outs that look alike come from different tables or passages of the source.

For the molecule `CC(=O)Oc1cc(OC(=O)CCC(=O)Oc2c(C)c(C)c3c(c2C)CCC(C)(CCCC(C)CCCC(C)CCCC(C)C)O3)c2c(=O)cc(-c3ccc(OC(C)=O)c(OC(C)=O)c3)oc2c1` (stereo not drawn) [Lut(Ac)3-succinate-Vit E, 7-acetoxy-2-(3,4-diacetoxyphenyl)-4-oxo-4H-chromen-5-yl 2,5,7,8-tetramethyl-2-(4,8,12-trimethyltridecyl)-3,4-dihydro-2H-chromen-6-yl succinate], in data set [1], the “Active substance(s) released by bio-hydrolyse: A” value is reported as “Acetate +; also recorded: Succinate”, the “Active substance(s) released by bio-hydrolyse: B” value was “Vitamin E” and the “Active substance(s) released by bio-hydrolyse: Polyphenol (PP)” value (“Active substance(s) released … (PP)” for short) is reported as “Luteolin”. Also, the “Bio-hydrolysis Rate (%)” value in data set [1] (bio-hydrolysis time 5 h) came to 70%.

As to `CCCCCC(=O)Oc1ccc(/C=C/c2cc(OC(C)=O)cc(OC(C)=O)c2)cc1` [Res(Ac)2-caproate, 3,5-resveratrol diacetate-4′-caproate], in data set [2], the “Active substance(s) released … (PP)” value was “Resveratrol” and the “Bio-hydrolysis Rate (%)” value is recorded as 95%.

In the case of `COc1cc(/C=C/C(=O)Oc2ccc(/C=C/c3cc(OC(C)=O)cc(OC(C)=O)c3)cc2)ccc1OC(C)=O` [Res(Ac)2-ferulate(Ac), (E)-4-((E)-3,5-diacetoxystyryl)phenyl 3-(4-acetoxy-3-methoxyphenyl)acrylate], in data set [1], the “Active substance(s) released by bio-hydrolyse: A” value is reported as “Acetate”, the “Active substance(s) released by bio-hydrolyse: B” value is reported as “Ferulic acid” and the “Active substance(s) released … (PP)” value is on record as “Resveratrol”. For the same molecule, the “Bio-hydrolysis Rate (%)” value in data set [1] (bio-hydrolysis time 6.5 h) turned out to be 71%.

For `CC(=O)Oc1cc(/C=C/c2ccc(OC(=O)CCCCC3CCSS3)cc2)cc(OC(C)=O)c1` (stereo not drawn) [Res(Ac)2-lipoate, (E)-4-(3,5-diacetoxystyryl)phenyl-5-(1,2-dithiolan-3-yl)pentanoate], in data set [1], the “Active substance(s) released by bio-hydrolyse: A” value is “Acetate”, the “Active substance(s) released by bio-hydrolyse: B” value is recorded as “Lipoate” and the “Active substance(s) released … (PP)” value is reported as “lipoic acid; also recorded: Resveratrol +”. Besides, the “Bio-hydrolysis Rate (%)” value in data set [1] (bio-hydrolysis time 48 h) is listed as 87%.

Regarding `CCCCCC(=O)Oc1ccc(/C=C/c2cc(OC(=O)CCCCC)cc(OC(=O)CCCCC)c2)cc1` [Res(caproate)3, 3,5,4′-resveratrol tricaproate, reference compound], in data set [2], the “Active substance(s) released by bio-hydrolyse: A” value is listed as “Caproate”, the “Active substance(s) released … (PP)” value is given as “Resveratrol” and the “Bio-hydrolysis Rate (%)” value is 98%.

Regarding `O=C(CCCCC1CCSS1)Oc1ccc(/C=C/c2cc(OC(=O)CCCCC3CCSS3)cc(OC(=O)CCCCC3CCSS3)c2)cc1` (stereo not drawn) [Res(lipoate)3, 3,5,4′-resveratrol trilipoate], the “Solubility of precursor in the medium” value in data set [3] is “insolubility”.

These data come from patent US9067908B2, “Polyphenolic bioprecursors” (RHODIA CHIMIE, priority 2005, dated 2015).
